Laboratory results as given in patent EP4745137A1 (Gluetacs Therapeutics (Shanghai) Co., Ltd., priority 2023, dated 2025).

How the values were obtained:
Format in all cases: cell-based
Conditions in all cases: 24 hours of compound treatment, 50 nM and 500 nM tested (concentration behind the class not stated)
WEE1 = molecular target: T1, WEE1 (Homo sapiens, UniProt P30291+Q96SW2); assay: Western-blot assay of substrate protein degradation in hPBMCs, WEE1
T1 construct: endogenous in cells; host or cells: hPBMCs (Milecell Biotechnologies)

IKZF1 = molecular target: T2, IKZF1 (Homo sapiens, UniProt Q13422+Q96SW2); assay: Western-blot assay of substrate protein degradation in hPBMCs, IKZF1
T2 construct: endogenous in cells; host or cells: hPBMCs (Milecell Biotechnologies)

CK1α = molecular target: T3, CK1α (Homo sapiens, UniProt P48729+Q96SW2); assay: Western-blot assay of substrate protein degradation in hPBMCs, CK1α
T3 construct: endogenous in cells; host or cells: hPBMCs (Milecell Biotechnologies)

IKZF3 = molecular target: T4, IKZF3 (Homo sapiens, UniProt Q96SW2+Q9UKT9); assay: Western-blot assay of substrate protein degradation in hPBMCs, IKZF3
T4 construct: endogenous in cells; host or cells: hPBMCs (Milecell Biotechnologies)

GSPT1 = molecular target: T5, GSPT1 (Homo sapiens, UniProt P15170+Q96SW2); assay: Western-blot assay of substrate protein degradation in hPBMCs, GSPT1
T5 construct: endogenous in cells; host or cells: hPBMCs (Milecell Biotechnologies)

IKZF2 = molecular target: T6, IKZF2 (Homo sapiens, UniProt Q96SW2+Q9UKS7); assay: Western-blot assay of substrate protein degradation in hPBMCs, IKZF2
T6 construct: endogenous in cells; host or cells: hPBMCs (Milecell Biotechnologies)
T6 sequence (Q9UKS7 whole entry): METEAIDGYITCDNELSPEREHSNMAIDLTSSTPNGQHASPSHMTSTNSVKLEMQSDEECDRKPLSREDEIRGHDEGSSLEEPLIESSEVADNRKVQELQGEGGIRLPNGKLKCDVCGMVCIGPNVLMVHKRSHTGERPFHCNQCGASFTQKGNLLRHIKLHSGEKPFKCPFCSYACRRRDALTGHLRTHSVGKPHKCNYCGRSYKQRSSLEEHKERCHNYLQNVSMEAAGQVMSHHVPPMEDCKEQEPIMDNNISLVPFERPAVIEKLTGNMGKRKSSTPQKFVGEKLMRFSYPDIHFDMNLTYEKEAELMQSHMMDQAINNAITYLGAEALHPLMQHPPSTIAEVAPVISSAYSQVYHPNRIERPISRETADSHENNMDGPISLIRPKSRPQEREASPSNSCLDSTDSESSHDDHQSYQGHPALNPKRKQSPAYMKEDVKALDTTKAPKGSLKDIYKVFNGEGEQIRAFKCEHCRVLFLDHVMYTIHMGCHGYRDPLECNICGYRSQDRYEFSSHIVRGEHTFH
T6 sequence (Q96SW2 whole entry): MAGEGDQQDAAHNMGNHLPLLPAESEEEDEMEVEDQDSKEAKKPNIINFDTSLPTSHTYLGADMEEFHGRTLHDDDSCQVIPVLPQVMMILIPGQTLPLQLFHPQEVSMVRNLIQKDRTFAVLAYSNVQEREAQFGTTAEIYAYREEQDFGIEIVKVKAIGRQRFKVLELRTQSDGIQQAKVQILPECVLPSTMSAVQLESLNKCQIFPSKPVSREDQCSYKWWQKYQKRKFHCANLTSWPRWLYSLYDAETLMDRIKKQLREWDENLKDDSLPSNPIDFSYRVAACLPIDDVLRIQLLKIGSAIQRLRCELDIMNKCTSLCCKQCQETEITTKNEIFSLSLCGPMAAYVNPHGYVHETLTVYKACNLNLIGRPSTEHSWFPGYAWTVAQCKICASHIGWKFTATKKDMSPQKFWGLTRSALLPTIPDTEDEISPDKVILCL
T6 sequence (Q16531 whole entry partner): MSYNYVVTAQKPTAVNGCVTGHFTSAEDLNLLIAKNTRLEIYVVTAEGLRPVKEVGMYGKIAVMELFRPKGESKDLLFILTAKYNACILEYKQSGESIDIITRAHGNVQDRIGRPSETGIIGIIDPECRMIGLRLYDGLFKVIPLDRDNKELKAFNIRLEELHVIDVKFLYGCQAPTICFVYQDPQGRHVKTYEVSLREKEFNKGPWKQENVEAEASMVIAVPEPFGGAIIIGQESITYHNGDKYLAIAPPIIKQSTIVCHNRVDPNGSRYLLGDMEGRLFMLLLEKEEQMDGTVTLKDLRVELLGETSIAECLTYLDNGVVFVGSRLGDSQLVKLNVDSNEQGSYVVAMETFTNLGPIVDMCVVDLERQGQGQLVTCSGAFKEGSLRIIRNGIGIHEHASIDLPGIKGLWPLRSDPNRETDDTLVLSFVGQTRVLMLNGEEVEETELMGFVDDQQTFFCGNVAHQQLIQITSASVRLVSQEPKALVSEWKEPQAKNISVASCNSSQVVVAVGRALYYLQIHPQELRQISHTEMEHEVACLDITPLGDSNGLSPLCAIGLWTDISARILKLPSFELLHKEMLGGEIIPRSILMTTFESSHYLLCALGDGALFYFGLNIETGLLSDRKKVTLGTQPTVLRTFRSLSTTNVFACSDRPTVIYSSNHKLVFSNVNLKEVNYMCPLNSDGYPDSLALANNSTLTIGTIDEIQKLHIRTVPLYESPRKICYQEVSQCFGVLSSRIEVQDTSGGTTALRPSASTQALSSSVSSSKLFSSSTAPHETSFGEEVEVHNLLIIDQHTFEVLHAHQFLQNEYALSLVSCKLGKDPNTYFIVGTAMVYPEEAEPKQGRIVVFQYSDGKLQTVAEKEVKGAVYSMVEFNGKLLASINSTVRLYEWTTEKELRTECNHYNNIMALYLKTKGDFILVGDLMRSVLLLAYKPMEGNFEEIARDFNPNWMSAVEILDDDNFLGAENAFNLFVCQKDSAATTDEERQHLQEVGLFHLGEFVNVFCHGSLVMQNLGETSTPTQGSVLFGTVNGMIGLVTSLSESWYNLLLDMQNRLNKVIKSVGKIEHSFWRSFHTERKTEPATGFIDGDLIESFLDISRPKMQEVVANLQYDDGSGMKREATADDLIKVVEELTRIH

T1 sequence (P30291 whole entry): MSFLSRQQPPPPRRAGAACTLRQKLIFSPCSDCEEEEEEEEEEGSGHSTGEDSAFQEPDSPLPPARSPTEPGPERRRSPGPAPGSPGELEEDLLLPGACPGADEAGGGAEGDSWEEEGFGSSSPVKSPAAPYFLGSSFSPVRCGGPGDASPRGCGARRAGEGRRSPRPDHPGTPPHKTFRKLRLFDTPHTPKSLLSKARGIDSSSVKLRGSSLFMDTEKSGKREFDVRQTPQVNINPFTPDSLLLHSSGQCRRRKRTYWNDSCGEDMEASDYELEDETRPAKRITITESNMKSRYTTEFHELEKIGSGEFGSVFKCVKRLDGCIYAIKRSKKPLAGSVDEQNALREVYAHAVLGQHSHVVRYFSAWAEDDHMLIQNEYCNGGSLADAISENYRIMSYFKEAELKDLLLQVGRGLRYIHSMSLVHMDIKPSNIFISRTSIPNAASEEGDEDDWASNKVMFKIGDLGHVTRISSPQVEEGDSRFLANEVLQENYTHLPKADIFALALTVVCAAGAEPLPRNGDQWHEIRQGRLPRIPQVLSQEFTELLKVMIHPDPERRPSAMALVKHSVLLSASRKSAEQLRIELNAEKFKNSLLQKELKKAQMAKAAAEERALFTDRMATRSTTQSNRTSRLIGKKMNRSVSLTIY
T1 sequence (Q96SW2 whole entry): as the sequence (Q96SW2 whole entry) above
T1 sequence (Q16531 whole entry partner): as the sequence (Q16531 whole entry partner) above
T2 sequence (Q13422 whole entry): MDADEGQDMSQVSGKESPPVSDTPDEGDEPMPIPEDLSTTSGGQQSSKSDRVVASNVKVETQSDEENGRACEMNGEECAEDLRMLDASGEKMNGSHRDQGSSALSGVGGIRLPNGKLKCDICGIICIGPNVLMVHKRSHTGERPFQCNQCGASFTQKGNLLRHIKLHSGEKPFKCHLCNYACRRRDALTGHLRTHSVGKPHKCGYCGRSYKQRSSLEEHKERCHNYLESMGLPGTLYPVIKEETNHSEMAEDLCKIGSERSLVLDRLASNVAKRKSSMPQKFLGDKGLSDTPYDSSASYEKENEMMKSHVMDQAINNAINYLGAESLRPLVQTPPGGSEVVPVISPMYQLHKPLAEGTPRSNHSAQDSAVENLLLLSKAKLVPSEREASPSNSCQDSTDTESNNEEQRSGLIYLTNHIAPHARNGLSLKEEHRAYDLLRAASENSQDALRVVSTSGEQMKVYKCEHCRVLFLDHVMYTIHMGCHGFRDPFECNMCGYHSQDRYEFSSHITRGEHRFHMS
T2 sequence (Q96SW2 whole entry): as the sequence (Q96SW2 whole entry) above
T2 sequence (Q16531 whole entry partner): as the sequence (Q16531 whole entry partner) above
T4 sequence (Q9UKT9 whole entry): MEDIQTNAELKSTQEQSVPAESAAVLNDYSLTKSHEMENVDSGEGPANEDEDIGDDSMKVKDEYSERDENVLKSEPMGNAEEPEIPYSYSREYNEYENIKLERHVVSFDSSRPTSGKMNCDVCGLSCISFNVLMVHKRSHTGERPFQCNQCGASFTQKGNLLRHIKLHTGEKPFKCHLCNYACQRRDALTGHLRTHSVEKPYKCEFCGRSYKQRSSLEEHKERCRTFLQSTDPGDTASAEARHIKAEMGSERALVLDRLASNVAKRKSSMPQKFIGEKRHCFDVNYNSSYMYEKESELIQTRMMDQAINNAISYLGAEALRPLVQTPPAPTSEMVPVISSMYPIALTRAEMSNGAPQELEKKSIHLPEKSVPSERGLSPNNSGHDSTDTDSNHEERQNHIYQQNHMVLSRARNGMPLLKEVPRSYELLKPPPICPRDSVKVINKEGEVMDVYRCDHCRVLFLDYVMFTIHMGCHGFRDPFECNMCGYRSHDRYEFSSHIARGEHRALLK
T4 sequence (Q96SW2 whole entry): as the sequence (Q96SW2 whole entry) above
T4 sequence (Q16531 whole entry partner): as the sequence (Q16531 whole entry partner) above
T3 sequence (P48729 whole entry): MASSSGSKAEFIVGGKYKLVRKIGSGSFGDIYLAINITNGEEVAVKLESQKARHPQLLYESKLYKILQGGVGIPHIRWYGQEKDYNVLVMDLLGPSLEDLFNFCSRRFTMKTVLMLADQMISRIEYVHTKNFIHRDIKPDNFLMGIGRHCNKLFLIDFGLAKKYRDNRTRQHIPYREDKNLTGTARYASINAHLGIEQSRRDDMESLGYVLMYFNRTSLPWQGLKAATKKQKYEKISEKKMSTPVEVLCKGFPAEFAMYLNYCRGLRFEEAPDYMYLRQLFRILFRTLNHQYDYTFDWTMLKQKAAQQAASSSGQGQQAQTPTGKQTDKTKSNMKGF
T3 sequence (Q96SW2 whole entry): as the sequence (Q96SW2 whole entry) above
T3 sequence (Q16531 whole entry partner): as the sequence (Q16531 whole entry partner) above

| SMILES | Weel substrate protein remaining % (WEE1) | IKZF 1 substrate protein remaining % (IKZF1) | CK1a substrate protein remaining % (CK1α) | IKZF3 substrate protein remaining % (IKZF3) | GSPT1 substrate protein remaining % (GSPT1) | IKZF2 substrate protein remaining % (IKZF2) |
| --- | --- | --- | --- | --- | --- | --- |
| O=C1CCC(N2C(=O)c3ccc(CN4CCN(c5ncnc6sccc56)CC4)cc3C2=O)C(=O)N1 (stereo not drawn) [GT-06303, 2-(2,6-dioxopiperidin-3-yl)-5-((4-(thieno[2,3-d]pyrimidin-4-yl)piperazin-1-yl)methyl)isoindoline-1,3-dione] | B (80%< substrate protein remaining %≤ 100%) | A (0% ≤ substrate protein remaining % ≤ 80%) | B (80%< substrate protein remaining %≤ 100%) | B (80%< substrate protein remaining %≤ 100%) | B (80%< substrate protein remaining %≤ 100%) | B (80%< substrate protein remaining %≤ 100%) |
| Cc1cc2c(N3CCN(Cc4ccc5c(c4)C(=O)N(C4CCC(=O)NC4=O)C5=O)CC3)ncnc2s1 (stereo not drawn) [GT-06305, 2-(2,6-dioxopiperidin-3-yl)-5-((4-(6-methylthieno[2,3-d]pyrimidin-4-yl)piperazin-1-yl)methyl)isoindoline-1,3-dione] | B (80%< substrate protein remaining %≤ 100%) | B (80%< substrate protein remaining %≤ 100%) | A (0% ≤ substrate protein remaining % ≤ 80%) | B (80%< substrate protein remaining %≤ 100%) | B (80%< substrate protein remaining %≤ 100%) | B (80%< substrate protein remaining %≤ 100%) |
| Cc1sc2ncnc(N3CCN(Cc4ccc5c(c4)C(=O)N(C4CCC(=O)NC4=O)C5=O)CC3)c2c1C (stereo not drawn) [GT-06307, 5-((4-(5,6-dimethylthieno[2,3-d]pyrimidin-4-yl)piperazin-1-yl)methyl)-2-(2,6-dioxopiperidin-3-yl)isoindoline-1,3-dione] | B (80%< substrate protein remaining %≤ 100%) | A (0% ≤ substrate protein remaining % ≤ 80%) | A (0% ≤ substrate protein remaining % ≤ 80%) | B (80%< substrate protein remaining %≤ 100%) | A (0% ≤ substrate protein remaining % ≤ 80%) | A (0% ≤ substrate protein remaining % ≤ 80%) |
| Cc1sc2ncnc(N3CCCN(Cc4ccc5c(c4)C(=O)N(C4CCC(=O)NC4=O)C5=O)CC3)c2c1C (stereo not drawn) [GT-06308, 5-((4-(5,6-dimethylthieno[2,3-d]pyrimidin-4-yl)-1,4-diazepan-1-yl)methyl)-2-(2,6-dioxopiperidin-3-yl)isoindoline-1,3-dione] | B (80%< substrate protein remaining %≤ 100%) | A (0% ≤ substrate protein remaining % ≤ 80%) | B (80%< substrate protein remaining %≤ 100%) | B (80%< substrate protein remaining %≤ 100%) | B (80%< substrate protein remaining %≤ 100%) | A (0% ≤ substrate protein remaining % ≤ 80%) |
| O=C1CCC(N2C(=O)c3ccc(CN4CCN(c5ncnc6sc(-c7ccccc7)cc56)CC4)cc3C2=O)C(=O)N1 (stereo not drawn) [GT-06310, 2-(2,6-dioxopiperidin-3-yl)-5-((4-(6-phenylthieno[2,3-d]pyrimidin-4-yl)piperazin-1-yl)methyl)isoindoline-1,3-dione] | B (80%< substrate protein remaining %≤ 100%) | B (80%< substrate protein remaining %≤ 100%) | A (0% ≤ substrate protein remaining % ≤ 80%) | A (0% ≤ substrate protein remaining % ≤ 80%) | A (0% ≤ substrate protein remaining % ≤ 80%) | A (0% ≤ substrate protein remaining % ≤ 80%) |
| Cc1nc(N2CCN(Cc3ccc4c(c3)C(=O)N(C3CCC(=O)NC3=O)C4=O)CC2)c2ccsc2n1 (stereo not drawn) [GT-06347, 2-(2,6-dioxopiperidin-3-yl)-5-((4-(2-methylthieno[2,3-d]pyrimidin-4-yl)piperazin-1-yl)methyl)isoindoline-1,3-dione] | B (80%< substrate protein remaining %≤ 100%) | A (0% ≤ substrate protein remaining % ≤ 80%) | B (80%< substrate protein remaining %≤ 100%) | A (0% ≤ substrate protein remaining % ≤ 80%) | B (80%< substrate protein remaining %≤ 100%) | A (0% ≤ substrate protein remaining % ≤ 80%) |
| O=C1CCC(N2C(=O)c3ccc(CN4CCN(c5ccc(Cl)cc5Cl)CC4)cc3C2=O)C(=O)N1 (stereo not drawn) [GT-06355, 5-((4-(2,4-dichlorophenyl)piperazin-1-yl)methyl)-2-(2,6-dioxopiperidin-3-yl)isoindoline-1,3-dione] | B (80%< substrate protein remaining %≤ 100%) | B (80%< substrate protein remaining %≤ 100%) | B (80%< substrate protein remaining %≤ 100%) | B (80%< substrate protein remaining %≤ 100%) | A (0% ≤ substrate protein remaining % ≤ 80%) | B (80%< substrate protein remaining %≤ 100%) |
| O=C1CCC(N2C(=O)c3ccc(CN4CCN(c5cc(Cl)ccc5Cl)CC4)cc3C2=O)C(=O)N1 (stereo not drawn) [GT-06356, 5-((4-(2,5-dichlorophenyl)piperazin-1-yl)methyl)-2-(2,6-dioxopiperidin-3-yl)isoindoline-1,3-dione] | B (80%< substrate protein remaining %≤ 100%) | B (80%< substrate protein remaining %≤ 100%) | B (80%< substrate protein remaining %≤ 100%) | B (80%< substrate protein remaining %≤ 100%) | A (0% ≤ substrate protein remaining % ≤ 80%) | B (80%< substrate protein remaining %≤ 100%) |
| O=C1CCC(N2C(=O)c3ccc(CN4CCC(c5cccc(Cl)c5Cl)CC4)cc3C2=O)C(=O)N1 (stereo not drawn) [GT-06358, 5-((4-(2,3-dichlorophenyl)piperidin-1-yl)methyl)-2-(2,6-dioxopiperidin-3-yl)isoindoline-1,3-dione] | A (0% ≤ substrate protein remaining % ≤ 80%) | A (0% ≤ substrate protein remaining % ≤ 80%) | B (80%< substrate protein remaining %≤ 100%) | B (80%< substrate protein remaining %≤ 100%) | A (0% ≤ substrate protein remaining % ≤ 80%) | A (0% ≤ substrate protein remaining % ≤ 80%) |
| O=C1CCC(N2C(=O)c3ccc(CN4CCC(c5cccc(F)c5F)CC4)cc3C2=O)C(=O)N1 (stereo not drawn) [GT-06359, 5-((4-(2,3-difluorophenyl)piperidin-1-yl)methyl)-2-(2,6-dioxopiperidin-3-yl)isoindoline-1,3-dione] | A (0% ≤ substrate protein remaining % ≤ 80%) | A (0% ≤ substrate protein remaining % ≤ 80%) | B (80%< substrate protein remaining %≤ 100%) | B (80%< substrate protein remaining %≤ 100%) | A (0% ≤ substrate protein remaining % ≤ 80%) | A (0% ≤ substrate protein remaining % ≤ 80%) |
| O=C1CCC(N2C(=O)c3ccc(CN4CCC(c5cccc(F)c5Cl)CC4)cc3C2=O)C(=O)N1 (stereo not drawn) [GT-06360, 5-((4-(2-chloro-3-fluorophenyl)piperidin-1-yl)methyl)-2-(2,6-dioxopiperidin-3-yl)isoindoline-1,3-dione] | A (0% ≤ substrate protein remaining % ≤ 80%) | A (0% ≤ substrate protein remaining % ≤ 80%) | B (80%< substrate protein remaining %≤ 100%) | B (80%< substrate protein remaining %≤ 100%) | A (0% ≤ substrate protein remaining % ≤ 80%) | A (0% ≤ substrate protein remaining % ≤ 80%) |
| O=C1CCC(N2C(=O)c3ccc(CN4CCN(c5ccc(F)cc5F)CC4)cc3C2=O)C(=O)N1 (stereo not drawn) [GT-06361, 5-((4-(2,4-difluorophenyl)piperazin-1-yl)methyl)-2-(2,6-dioxopiperidin-3-yl)isoindoline-1,3-dione] | B (80%< substrate protein remaining %≤ 100%) | B (80%< substrate protein remaining %≤ 100%) | B (80%< substrate protein remaining %≤ 100%) | B (80%< substrate protein remaining %≤ 100%) | A (0% ≤ substrate protein remaining % ≤ 80%) | B (80%< substrate protein remaining %≤ 100%) |
| O=C1CCC(N2C(=O)c3ccc(CN4CCN(c5cc(F)ccc5F)CC4)cc3C2=O)C(=O)N1 (stereo not drawn) [GT-06362, 5-((4-(2,5-difluorophenyl)piperazin-1-yl)methyl)-2-(2,6-dioxopiperidin-3-yl)isoindoline-1,3-dione] | B (80%< substrate protein remaining %≤ 100%) | B (80%< substrate protein remaining %≤ 100%) | B (80%< substrate protein remaining %≤ 100%) | B (80%< substrate protein remaining %≤ 100%) | A (0% ≤ substrate protein remaining % ≤ 80%) | B (80%< substrate protein remaining %≤ 100%) |
